According to US20080039515A1, “Arylpyrazoles And Methods Of Using Same For Control Of Insect Pests That Bore Into Trees” (The Texas A&M University System, priority 2004, published 2008):
Like-named read-outs stand apart in the source and are kept apart here.

Columns and labels:
cerambycid larvae = type: in vivo, cerambycids; conditions: for reduction of cerambycid larval feeding damage: May
Method: (§1) Study Sites: Two 20-year-old, recently thinned loblolly pine plantations were selected in Texas. Trees in one plantation were injected for use in a bolt study (Trial 1). Trees in ½ acre section of the second plantation were injected as part of a single-tree protection study (Trial 2). A staging area also was set up in the second plantation where bolts from the first plantation were exposed to bark beetles and wood borers.
After 1 (May 24), 3 (July 19) and 5 (September) months post-injection, 5 trees of each treatment were felled and two 1.5 m long bolts were removed from the 3 m and 8 m heights of the bole. Because southern pine beetle (SPB) populations were extremely low in east Texas during the study year, Ips engravers were used as alternative bark beetles for this study. The bolts were transported to a 20-year-old loblolly plantation that was recently thinned and contained fresh slash material. Each bolt was placed about 1 m apart on discarded, dry pine bolts to maximize surface area available for colonization as well as to discourage predation by ground and litter-inhabiting organisms. To facilitate timely bark beetle colonization, packets of bark beetle pheromones (racemic ipsdienol +lanerione combination, ipsenol or cis-verbenol; Phero Tech, Inc., Delta, BC, Canada) were attached separately to three 1 m stakes evenly spaced in the study area. Racemic ipsdienol and cis-verbenol were used with the second series of bolts deployed in July. The packets were removed after 2 weeks when signs of attacks (boring dust) were observed on most test bolts, signaling that naturally-produced pheromones were present.
Treatment Evaluation: Trial 1. The first and second series of bolts were retrieved 2.5 and 3 weeks, respectively, after deployment, after observing many cerambycid attacks on most of the bolts. In the laboratory, two 10×50 cm strips (total=1000 cm^2) of bark were removed from each bolt. Several measurements were made relating to construction of nuptial chambers and egg galleries and development of brood: • 1. Number of unsuccessful attacks—penetration to phloem, but no egg galleries. • 2. Number of successful attacks—construction of nuptial chamber and at least one egg gallery extending from it. • 3. Number and lengths of egg galleries with brood galleries radiating from them. • 4. Number and lengths of egg galleries without brood galleries. • 5. Cerambycid activity, estimated by overlaying a 100 cm^2 grid over a portion of each bark strip and counting the number of squares overlapping area where cerambycids had fed.
Treatment efficacy was determined by comparing Ips beetle attacks and egg gallery length and cerambycid feeding on treated and untreated bolts. The data were transformed by log10(x+1) to satisfy criteria for normality and homoscedasticity (Zar 1984) and analyzed by GLM and the Fishers Protected LSD test using the Statview statistical program.

Ips engraver beetles = assay: Trial 2 single-tree protection study: Ips attack, tree mortality and gallery construction on standing loblolly pine; type: in vivo; design: Length of Egg Galleries Total: unit not given here; conditions: for trees with early signs of fading crowns (number of 6 trees): 24 days after initial pheromone deployment; for Length of Egg Galleries Total / Length of Egg Galleries With Brood / Length of Egg Galleries With Brood % of Total / Length of Egg Galleries Without Brood / Length of Egg Galleries Without Brood % of Total / Number of Egg Galleries Total / Number of Egg Galleries With Brood % of Total / Number of Egg Galleries With Brood No. / Number of Egg Galleries Without Brood % of Total / Number of Egg Galleries Without Brood No. / Nuptial Chambers With Egg Galleries % of Total / Nuptial Chambers With Egg Galleries No. / Nuptial Chambers Without Egg Galleries % of Total / Nuptial Chambers Without Egg Galleries No. / Total Nuptial Chambers: logs cut after tree mortality or end of trial; for Mean # of Ips caught/trap / Number of Attacks/0.3 m bole section at 3 m after 24 days: Ips: standing loblolly pine; for Number of Attacks/0.3 m bole section at 3 m after 24 days: Ips: 24 days after pheromone deployment
Method: as §1
Population Monitoring: A clear panel of acetate (10 cm wide by 25 cm long) was attached to the center of each bolt after deployment of bolts or 2 m high on standing trees after deployment of pheromone baits to monitor arrival of bark beetles. The top surface of each panel was coated entirely with Stikem Special® trapping compound (Michel and Pelton, Emeryville, Calif.). The traps were left in place for two weeks.
Trial 2: Loblolly pine, 15-20 cm (=6-9 inch) DBH, also were selected in March of the study year in a recently thinned 20-year-old pine stand in east Texas. Each treatment (the same as those used in Trial 1) was injected into four cardinal points about 0.3 m above the ground on each of 6 trees in April (16th-23rd) using the Arborjet Tree IV™ system.
After 5 weeks post-injection (May 28), frills were cut with a hatchet into the sapwood between the injection points near the base of the tree. A cellulose. sponge was inserted into each cut and loaded with I0 ml of a 4:1 mix of sodium N-methyldithiocarbamate (MS) (Woodfume®; Osmose, Inc., Buffalo, N.Y.) plus dimethyl sulfoxide (DMSO) (Aldrich Chemical) (Roton 1987, Strom et al. 2004). […] The intent was to stress the tree and make it susceptible to attack by bark beetles without killing it. Pheromone packets containing racemic ipsdienol+lanerione, ipsenol or cis-verbenol were attached (June 7) atop 3 m stakes evenly spaced in between and around the study trees to encourage attack by the three Ips engraver species. […] The baits were changed every 4 weeks.
Trial 2. […] All visible Ips attacks and cerambycid egg niches were counted within the marked area. The number of trees with fading crowns also was recorded. Thereafter, the trees were evaluated weekly for crown fading. When mortality did occur, the trees were felled and two bolts taken and evaluated for attack success and gallery length as described in Trial 1. […] Treatment efficacy was determined by comparing tree survival, beetle attacks and egg gallery length on treated and untreated bolts. As before, data were transformed and analyzed by GLM and the Fisher's Protected LSD test using the Statview statistical program.

[1] = After 24 days from pheromone bait deployment

## O=[N+]([O-])NC1=NCCN1Cc1ccc(Cl)nc1 [Imid]
Cerambycid larvae; bolts from 3 m
  reduction of cerambycid larval feeding damage: 61%
Cerambycid larvae; bolts from 8 m
  reduction of cerambycid larval feeding damage: 98%
Ips engraver beetles
  trees with early signs of fading crowns (number of 6 trees): 3 of 6
  Mean # of Ips caught/trap: 8.5
  Number of Attacks/0.3 m bole section at 3 m after 24 days: Ips: 12.7
Ips engraver beetles; [1]
  Pct of Trees w/Fading Crowns: 50.0 Pct
Ips engraver beetles; After 32 days
  Pct of Trees w/Fading Crowns: 83.3 Pct
Ips engraver beetles; After 39 days
  Pct of Trees w/Fading Crowns: 83.3 Pct
Ips engraver beetles; After 46 days
  Pct of Trees w/Fading Crowns: 83.3 Pct
Ips engraver beetles; After 52 days
  Pct of Trees w/Fading Crowns: 100.0 Pct
Ips engraver beetles; After 59 days
  Pct of Trees w/Fading Crowns: 100.0 Pct
Ips engraver beetles; After 66 days
  Pct of Trees w/Fading Crowns: 100.0 Pct
Ips engraver beetles; bolt height 3 m
  Length of Egg Galleries Total: 301.5
  Length of Egg Galleries With Brood: 121.7 cm
  Length of Egg Galleries With Brood % of Total: 40.4%
  Length of Egg Galleries Without Brood: 179.8 cm
  Length of Egg Galleries Without Brood % of Total: 59.6%
  Number of Egg Galleries Total: 38.2
  Number of Egg Galleries With Brood % of Total: 28.8%
  Number of Egg Galleries With Brood No.: 11.0
  Number of Egg Galleries Without Brood % of Total: 71.2%
  Number of Egg Galleries Without Brood No.: 27.2
  Nuptial Chambers With Egg Galleries % of Total: 98.0%
  Nuptial Chambers With Egg Galleries No.: 8.0
  Nuptial Chambers Without Egg Galleries % of Total: 2.0%
  Nuptial Chambers Without Egg Galleries No.: 0.2
  Total Nuptial Chambers: 8.2
Ips engraver beetles; bolt height 8 m
  Length of Egg Galleries Total: 217.5
  Length of Egg Galleries With Brood: 115.5 cm
  Length of Egg Galleries With Brood % of Total: 53.1%
  Length of Egg Galleries Without Brood: 102.0 cm
  Length of Egg Galleries Without Brood % of Total: 46.9%
  Number of Egg Galleries Total: 33.2
  Number of Egg Galleries With Brood % of Total: 42.7%
  Number of Egg Galleries Without Brood % of Total: 57.3%
  Number of Egg Galleries Without Brood No.: 19.0
  Nuptial Chambers With Egg Galleries % of Total: 78.7%
  Nuptial Chambers With Egg Galleries No.: 9.8
  Nuptial Chambers Without Egg Galleries % of Total: 21.3%
  Nuptial Chambers Without Egg Galleries No.: 2.7
  Total Nuptial Chambers: 12.5
Ips engraver beetles; standing trees, after 66 days
  trees died due to bark beetle attack: 100%

## N#Cc1nn(-c2c(Cl)cc(C(F)(F)F)cc2Cl)c(N)c1[S+]([O-])C(F)(F)F (centres unmarked) [Fip, 5-amino-3-cyano-1-(2,6-dichloro-4-trifluoromethylphenyl)-4-trifluoromethylsulfinylpyrazole]
Cerambycid larvae; July, bolts from 3 m
  phloem area fed upon by cerambycid larvae: 2%
Cerambycid larvae; bolts from 3 m
  reduction of cerambycid larval feeding damage: 82%
Cerambycid larvae; bolts from 8 m
  reduction of cerambycid larval feeding damage: 55%
Ips engraver beetles
  trees with early signs of fading crowns (number of 6 trees): None
  Mean # of Ips caught/trap: 5.2
  Number of Attacks/0.3 m bole section at 3 m after 24 days: Ips: 1.3
Ips engraver beetles; [1]
  Pct of Trees w/Fading Crowns: 0.0 Pct
Ips engraver beetles; After 32 days
  Pct of Trees w/Fading Crowns: 0.0 Pct
Ips engraver beetles; After 39 days
  Pct of Trees w/Fading Crowns: 0.0 Pct
Ips engraver beetles; After 46 days
  Pct of Trees w/Fading Crowns: 0.0 Pct
Ips engraver beetles; After 52 days
  Pct of Trees w/Fading Crowns: 0.0 Pct
Ips engraver beetles; After 59 days
  Pct of Trees w/Fading Crowns: 0.0 Pct
Ips engraver beetles; After 66 days
  Pct of Trees w/Fading Crowns: 0.0 Pct
Ips engraver beetles; bolt height 3 m
  Length of Egg Galleries Total: 6.0
  Length of Egg Galleries With Brood: 2.5 cm
  Length of Egg Galleries With Brood % of Total: 41.7%
  Length of Egg Galleries Without Brood: 3.5 cm
  Length of Egg Galleries Without Brood % of Total: 58.3%
  Number of Egg Galleries Total: 1.2
  Number of Egg Galleries With Brood % of Total: 14.3%
  Number of Egg Galleries With Brood No.: 0.2
  Number of Egg Galleries Without Brood % of Total: 85.7%
  Number of Egg Galleries Without Brood No.: 1.0
  Nuptial Chambers With Egg Galleries % of Total: 18.9%
  Nuptial Chambers With Egg Galleries No.: 1.2
  Nuptial Chambers Without Egg Galleries % of Total: 81.1%
  Nuptial Chambers Without Egg Galleries No.: 5.0
  Total Nuptial Chambers: 6.2
Ips engraver beetles; bolt height 8 m
  Length of Egg Galleries Total: 22.7
  Length of Egg Galleries With Brood: 2.5 cm
  Length of Egg Galleries With Brood % of Total: 11.0%
  Length of Egg Galleries Without Brood: 20.2 cm
  Length of Egg Galleries Without Brood % of Total: 89.0%
  Number of Egg Galleries Total: 7.7
  Number of Egg Galleries With Brood % of Total: 6.5%
  Number of Egg Galleries With Brood No.: 0.5
  Number of Egg Galleries Without Brood % of Total: 93.5%
  Number of Egg Galleries Without Brood No.: 7.2
  Nuptial Chambers With Egg Galleries % of Total: 66.7%
  Nuptial Chambers With Egg Galleries No.: 3.0
  Nuptial Chambers Without Egg Galleries % of Total: 33.3%
  Nuptial Chambers Without Egg Galleries No.: 1.5
  Total Nuptial Chambers: 4.5
Ips engraver beetles; standing trees, end of trial (66 days)
  tree survival: survived
